The values below come from patent US20130143927A1, “COMPOUNDS THAT MODULATE INTRACELLULAR CALCIUM” (CalciMedica, Inc., priority 2011, published 2013).

The target of test [1] is T1, recombinant human STIM1 and Orai1 (HEK-293 cells) (Homo sapiens, UniProt Q96D31).
T1 construct: expressed in transfected cells; host or cells: HEK-293 cells stably expressing both proteins
The test is described as follows: Fluorescence-based assay of store-operated calcium entry in Orai1/STIM1 stable cells. The format is cell-based. Conditions: fluo-4, 50% inhibition of Peak-Basal signal. As for the experimental part: A. Fluorescence-based Assay of Store-Operated Calcium Entry in Orai1/STIM1 Stable Cells.
Cells stably expressing recombinant human STIM1 and Orai1 are generated by transfecting a human Orai1 expression plasmid (pcDNA3.1-Orai1-cmyc) into HEK-293 cells stably overexpressing human STIM1 (Roos et al. 2005 JCB 169(3): 435-445). Colonies of cells stably expressing both STIM1 and Orai1 proteins are selected and then subcloned by limiting dilution. Cells were cultured at 37° C./6% CO2 in complete medium with 10% FBS and appropriate selection markers.
The day prior to performing the assay Orai1/STIM1 stable cells are plated in 50 μL of complete medium at 90-95% confluence in a 384 well plate. Cells are grown at 37° C./6% CO2 overnight. On the day of the assay, 1.5 μM fluo-4-AM (Invitrogen) in complete medium is added to the cells, which are then incubated for 1 hour at RT. Cells are washed once in Ca^2+-free HBSS (Hank's buffered saline solution) and 35 μl of Ca^2+-free HBSS is added to each well. Test compounds are added to wells in a 10 μL Ca^2+-free HBSS solution, prepared at 4.5× the desired final concentration, and incubated for 30 minutes at RT. The initial baseline fluorescence signal is then measured with a FLIPR^384 (Molecular Devices) plate reader. Calcium entry is initiated by adding 5 μl of 10×CaCl2 (10 mM) in HBSS, and changes in cellular fluorescence are measured with the FLIPR^384 plate reader. In each well, the magnitude of the fluorescence signal as a result of calcium entry into the cell is determined by calculating the difference between the peak fluorescence signal measured after calcium addition and the initial baseline fluorescence signal (designated Peak-Basal). IC50 values are typically calculated as the concentration that inhibited 50% of the Peak-Basal signal.

The test system of another test is RBL-2H3 cells. Kind of test: Fluorescence-based assay of store-operated calcium entry in RBL-2H3 cells. Format: cell-based. To be noted: Rattus norvegicus, store-operated calcium entry after thapsigargin, Fluo-4, 50% inhibition of Upslope. As for the experimental part:
B. Fluorescence-based Assay of Store-Operated Calcium Entry in RBL-2H3 Cells. Cells:
RBL-2H3 cells are obtained from ATCC and maintained in complete medium with 10% FBS at 37° C./6% CO2.
The day prior to performing the assay, RBL-2H3 cells are plated in 50 μL of complete medium in a 384 well plate. Cells are grown at 37° C./6% CO2 overnight and grow to 50-60% confluence by the next day. On the assay day, 1.5 μM Fluo-4-AM dye (Invitrogen) in complete medium is added and incubated for 1 hour at RT. Cells are washed twice in Ca^2+-free HBSS buffer and 35 μL Ca^2+-free HBSS buffer is added to each well. 10 μL of a test compound prepared in a Ca^2+-free HBSS solution at 4.5× of the desired concentration is added to a well and incubated for 5 minutes at RT. 10 μL of thapsigargin prepared in a Ca^2+-free HBSS solution at 5.5× of the desired concentration (5.5 uM) is added to each well and incubated for an additional 25 minutes. The initial baseline fluorescence signal is measured with a FLIPR^384 (Molecular Devices) plate reader. 5 μL of 12× calcium in HBSS (12 mM) is added and changes in cellular fluorescence are measured with the FLIPR^384 plate reader. In each well, the change in the fluorescent signal as a function of time due to calcium entry into the cell is determined by calculating the difference between the fluorescent signal measured 7 seconds after calcium addition and the initial baseline fluorescence signal at time zero (t=0). This parameter is designated Upslope. The IC50 value is calculated as the concentration at which 50% of the Upslope is inhibited.

Structures are written as SMILES. Where only a bound is given, the exact number is not on record here.

T1 sequence (Q96D31 whole entry): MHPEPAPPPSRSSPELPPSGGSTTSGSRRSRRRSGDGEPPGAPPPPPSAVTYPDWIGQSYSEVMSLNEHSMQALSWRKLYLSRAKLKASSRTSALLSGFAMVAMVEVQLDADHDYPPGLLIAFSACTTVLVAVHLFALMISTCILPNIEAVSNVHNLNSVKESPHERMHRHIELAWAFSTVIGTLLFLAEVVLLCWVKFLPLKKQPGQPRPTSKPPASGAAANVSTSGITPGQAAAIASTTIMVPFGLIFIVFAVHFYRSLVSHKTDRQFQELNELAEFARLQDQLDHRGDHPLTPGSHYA

One may read the IC50 as the concentration needed to halve the response being measured. For the compound `Cn1nc(C(F)(F)F)cc1-c1cnc(NCc2c(F)cccc2F)s1` [Compound 2, N-(2,6-difluorobenzyl)-5-(1-methyl-3-(trifluoromethyl)-1H-pyrazol-5-yl)thiazol-2-amine], the 50% inhibitory concentration (IC50) in test [1] was 0.6 to 1.2 µM; in the test with RBL-2H3 cells, under 0.6 µM.

For the compound `Cn1nc(C(F)(F)F)cc1-c1cnc(NCc2ccccc2F)s1` [Compound 4, N-(2-fluorobenzyl)-5-(1-methyl-3-(trifluoromethyl)-1H-pyrazol-5-yl)thiazol-2-amine], the IC50 (in test [1]; with RBL-2H3 cells) was under 0.6 µM each time.

Regarding `Cn1nc(C(F)(F)F)cc1-c1cnc(NCc2c(F)cncc2F)s1` [Compound 11, N-((3,5-difluoropyridin-4-yl)methyl)-5-(1-methyl-3-(trifluoromethyl)-1H-pyrazol-5-yl)thiazol-2-amine], the results for the IC50 (in test [1]; with RBL-2H3 cells) were over 1.2 µM and 0.6 to 1.2 µM, respectively.

Turning to `Cc1cc2c(cc1-c1cnc(NCc3c(F)cncc3F)s1)OC(F)(F)O2` [Compound 14, 5-(2,2-difluoro-6-methylbenzo[d][1,3]dioxol-5-yl)-N-((3,5-difluoropyridin-4-yl)methyl)thiazol-2-amine], the IC50 in test [1] was 0.6 to 1.2 µM; in the test on RBL-2H3 cells, under 0.6 µM.

For `Cc1cc2c(cc1-c1cnc(OCc3c(F)cccc3F)s1)OC(F)(F)O2` [Compound 31], the IC50 (in test [1]; with RBL-2H3 cells) was under 0.6 µM each time.

With `Cn1nc(C(F)(F)F)cc1-c1cnc(OCc2c(F)cccc2F)s1` [Compound 32, 2-[(2,6-difluorophenyl)methoxy]-5-[1-methyl-3-(trifluoromethyl)pyrazol-5-yl]-1,3-thiazole], the half-maximal inhibitory concentration (IC50) (in test [1]; in the test on RBL-2H3 cells) was under 0.6 µM throughout.

As to `Cn1nc(C(F)(F)F)cc1-c1ccc(NCc2ccccc2F)s1` [Compound 34, N-(2-fluorobenzyl)-5-(1-methyl-3-(trifluoromethyl)-1H-pyrazol-5-yl)thiophen-2-amine], the 50% inhibitory concentration (IC50) in test [1] is over 1.2 µM; in the test with RBL-2H3 cells it was 0.6 to 1.2 µM.

On to `Cn1nc(C(F)(F)F)cc1-c1ccc(NCc2c(F)cccc2F)s1` [Compound 35, N-(2,6-difluorobenzyl)-5-(1-methyl-3-(trifluoromethyl)-1H-pyrazol-5-yl)thiophen-2-amine], for which the values for the half-inhibitory concentration (IC50) (in test [1]; in the test on RBL-2H3 cells) were 0.6 to 1.2 µM and under 0.6 µM, respectively.

Regarding `Cc1cc2c(cc1-c1ccc(NCc3c(F)cccc3F)s1)OC(F)(F)O2` [Compound 36, 5-(2,2-difluoro-6-methylbenzo[d][1,3]dioxol-5-yl)-N-(2,6-difluorobenzyl)thiophen-2-amine], the figures for the IC50 (in test [1]; in the test on RBL-2H3 cells) were 0.6 to 1.2 µM and over 1.2 µM, respectively.
